Data on five molecules can be found in paper PMC8512631, “Structural Basis for PPARs Activation by The Dual PPARα/γ Agonist Sanguinarine: A Unique Mode of Ligand Recognition” (Molecules, 2021).

No end group written: not given here. *: point of attachment. Biotin = O=C1N[C@H]2[C@H](CS[C@H]2CCCCC(=O)*)N1

One assay has as its target T1, PPARα (Homo sapiens, UniProt Q07869).
T1 construct: gene PPARA; LBD
In words: thermal shift assay of LBD with SRC1 peptide; GAL4 reporter at […]. Type of assay: binding.

Assay [1] addresses T2, PPARδ (Homo sapiens, UniProt Q03181, H244A).
T2 construct: gene PPARD; full-length
T2 sequence (Q03181 1-441 H244A): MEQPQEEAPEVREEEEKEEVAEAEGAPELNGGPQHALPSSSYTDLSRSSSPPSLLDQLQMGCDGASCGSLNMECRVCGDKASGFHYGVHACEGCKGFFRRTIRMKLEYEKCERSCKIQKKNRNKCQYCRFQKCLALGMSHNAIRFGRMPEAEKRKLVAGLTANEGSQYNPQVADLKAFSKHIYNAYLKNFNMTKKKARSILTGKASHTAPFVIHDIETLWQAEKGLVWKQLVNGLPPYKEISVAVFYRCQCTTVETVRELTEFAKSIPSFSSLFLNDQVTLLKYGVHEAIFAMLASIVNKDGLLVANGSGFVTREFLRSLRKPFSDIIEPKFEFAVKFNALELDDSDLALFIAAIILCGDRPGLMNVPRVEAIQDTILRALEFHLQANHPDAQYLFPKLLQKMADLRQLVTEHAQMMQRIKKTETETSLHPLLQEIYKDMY
In words: PPRE luciferase reporter in […] cells, […]. It is filed as cell-based. Background: In a reporter assay the amount or activity of a reporter protein is the signal.

Assay [2] concerns the target T3, PPARδ (Homo sapiens, UniProt Q03181, R248A).
T3 construct: gene PPARD; full-length
T3 sequence (Q03181 1-441 R248A): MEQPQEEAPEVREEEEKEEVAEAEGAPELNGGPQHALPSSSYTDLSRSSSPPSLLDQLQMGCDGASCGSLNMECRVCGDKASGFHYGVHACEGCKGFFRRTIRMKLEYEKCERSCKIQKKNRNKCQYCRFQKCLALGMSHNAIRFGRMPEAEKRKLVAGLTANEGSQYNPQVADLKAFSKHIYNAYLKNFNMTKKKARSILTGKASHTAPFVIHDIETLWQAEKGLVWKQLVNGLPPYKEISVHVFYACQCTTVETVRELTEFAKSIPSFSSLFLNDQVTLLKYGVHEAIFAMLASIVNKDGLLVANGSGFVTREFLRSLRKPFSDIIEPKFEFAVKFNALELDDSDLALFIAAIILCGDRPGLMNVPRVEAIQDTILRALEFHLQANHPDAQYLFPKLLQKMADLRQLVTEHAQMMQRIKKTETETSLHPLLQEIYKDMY
Briefly: PPRE luciferase reporter in […] cells, […]. It is filed as cell-based.

Assay [3] has as its target T4, human PPARα ligand-binding domain (residues 196-468) (human, UniProt Q07869-1 196-468).
T4 construct: Expressed from pET24a; The methods describe only this PPARα-LBD construct; also called PPARα–LBD; source: E. coli BL21 (DE3), purified (Ni HiTrap, gel filtration Superdex 200); not shown: His6, N-terminal, kept
T4 sequence (looked up): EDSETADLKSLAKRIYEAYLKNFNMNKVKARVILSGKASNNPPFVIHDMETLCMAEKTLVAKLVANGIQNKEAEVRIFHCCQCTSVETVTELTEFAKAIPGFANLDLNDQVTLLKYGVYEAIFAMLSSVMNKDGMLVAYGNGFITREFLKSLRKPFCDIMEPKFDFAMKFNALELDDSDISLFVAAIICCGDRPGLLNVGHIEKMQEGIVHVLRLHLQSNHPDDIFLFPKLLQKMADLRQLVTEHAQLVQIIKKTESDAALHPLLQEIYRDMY
Briefly: AlphaScreen or HTRF; approximately 20–40 nM PPAR LBDs on nickel chelate acceptor beads, 20 nM biotinylated co-factor peptides on streptavidin donor beads; 50 mM MOPS, 50 mM NaF, 0.05 mM CHAPS, 0.1 mg/mL BSA, pH 7.4; in response to 1 μM sanguinarine. The following applies: both partners purified. In general terms: Alpha assays give light when donor and acceptor beads are brought close together.

T1 sequence (Q15788 2-1441 partner, one chain of several): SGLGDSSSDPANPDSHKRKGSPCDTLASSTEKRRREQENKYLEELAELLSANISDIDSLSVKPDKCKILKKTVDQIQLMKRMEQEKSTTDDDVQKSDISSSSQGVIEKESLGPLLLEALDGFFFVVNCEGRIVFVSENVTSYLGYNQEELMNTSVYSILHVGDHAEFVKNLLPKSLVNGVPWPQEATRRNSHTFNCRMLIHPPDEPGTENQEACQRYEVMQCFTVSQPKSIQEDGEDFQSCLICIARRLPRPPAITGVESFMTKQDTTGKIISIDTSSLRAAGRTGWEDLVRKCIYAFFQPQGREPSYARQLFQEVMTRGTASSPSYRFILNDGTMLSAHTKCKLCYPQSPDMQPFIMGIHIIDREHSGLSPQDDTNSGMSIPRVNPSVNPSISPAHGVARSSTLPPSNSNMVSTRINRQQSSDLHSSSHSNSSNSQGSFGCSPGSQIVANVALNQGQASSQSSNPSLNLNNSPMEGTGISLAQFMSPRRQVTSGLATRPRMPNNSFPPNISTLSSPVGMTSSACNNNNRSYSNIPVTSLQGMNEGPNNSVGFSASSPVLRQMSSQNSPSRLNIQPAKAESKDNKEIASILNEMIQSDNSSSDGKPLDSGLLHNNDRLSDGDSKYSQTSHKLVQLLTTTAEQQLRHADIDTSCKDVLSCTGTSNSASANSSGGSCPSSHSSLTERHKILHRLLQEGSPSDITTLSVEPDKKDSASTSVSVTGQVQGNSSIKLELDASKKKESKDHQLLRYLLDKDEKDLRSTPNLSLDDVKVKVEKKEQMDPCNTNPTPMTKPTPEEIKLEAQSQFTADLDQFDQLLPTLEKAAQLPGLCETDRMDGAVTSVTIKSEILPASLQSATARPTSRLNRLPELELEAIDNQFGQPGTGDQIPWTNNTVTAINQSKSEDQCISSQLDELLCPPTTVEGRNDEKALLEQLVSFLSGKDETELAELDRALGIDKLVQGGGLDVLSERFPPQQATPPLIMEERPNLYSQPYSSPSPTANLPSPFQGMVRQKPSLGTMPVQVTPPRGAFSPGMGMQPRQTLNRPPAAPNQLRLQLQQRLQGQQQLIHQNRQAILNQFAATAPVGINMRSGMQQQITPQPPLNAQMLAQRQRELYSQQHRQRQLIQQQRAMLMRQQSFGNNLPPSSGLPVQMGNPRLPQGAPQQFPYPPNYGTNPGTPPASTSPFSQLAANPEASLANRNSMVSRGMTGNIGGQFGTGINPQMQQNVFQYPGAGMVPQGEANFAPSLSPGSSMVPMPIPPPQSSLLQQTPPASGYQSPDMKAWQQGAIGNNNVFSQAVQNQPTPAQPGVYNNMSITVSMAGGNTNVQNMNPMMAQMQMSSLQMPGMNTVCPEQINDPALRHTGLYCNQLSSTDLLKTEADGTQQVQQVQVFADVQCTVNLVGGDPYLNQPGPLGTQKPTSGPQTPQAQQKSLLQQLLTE

Regarding `Cc1nc(-c2ccc(C(F)(F)F)cc2)sc1C(=O)NCc1ccc(OC(C)(C)C(=O)O)cc1` [GW590735], the “thermal shift assay of LBD with SRC1 peptide; GAL4 reporter at 1 μM” value at PPARα is reported as “thermal shift assay showed that SRC1 increased the thermal stability of sanguinarine–PPARα, compared with GW735–PPARα”. For the molecule `C[n+]1cc2c3c(ccc2c2ccc4cc5c(cc4c21)OCO5)OCO3` [sanguinarine], the “PPRE luciferase reporter in 293T cells, 1 μM” value was “the H244A mutation enables PPARδ to respond to sanguinarine treatment” at PPARδ [1] and “sanguinarine activated the transcriptional activity of PPARδ–R248A mutation, in contrast to wild-type PPARδ” on PPARδ [2]. As for Biotin-QEPVSPKKKENALLRYLLDKDDTKD [biotinylated SRC2-3 co-activator LXXLL motif peptide], in assay [3], the binding result is reported as “binds”. With Biotin-SPSSHSSLTERHKILHRLLQEGSP [biotinylated SRC1-2 co-activator LXXLL motif peptide], the binding result in assay [3] is “binds”. Still for that read-out and setting: for Biotin-PDAASKHKQLSELLRGGSG (the parent protein is in doubt) [biotinylated SRC3-3 co-activator LXXLL motif peptide] the value was “binds”.
